# Experimental data published in article PMC5560747, “Computational-experimental approach to drug-target interaction mapping: A case study on kinase inhibitors” (PLoS Computational Biology, 2017).
# Tests used:
# [1] = system: TAOK1; parameters: method as in Gao et al. [42]; settings: ref Gao et al. [42], cited from earlier work
# [2] = target: T1, AXL (Homo sapiens, UniProt P30530); parameters: method as in Gao et al. [42]; settings: ref Gao et al. [42], cited from earlier work
# T1 sequence (P30530 26-894): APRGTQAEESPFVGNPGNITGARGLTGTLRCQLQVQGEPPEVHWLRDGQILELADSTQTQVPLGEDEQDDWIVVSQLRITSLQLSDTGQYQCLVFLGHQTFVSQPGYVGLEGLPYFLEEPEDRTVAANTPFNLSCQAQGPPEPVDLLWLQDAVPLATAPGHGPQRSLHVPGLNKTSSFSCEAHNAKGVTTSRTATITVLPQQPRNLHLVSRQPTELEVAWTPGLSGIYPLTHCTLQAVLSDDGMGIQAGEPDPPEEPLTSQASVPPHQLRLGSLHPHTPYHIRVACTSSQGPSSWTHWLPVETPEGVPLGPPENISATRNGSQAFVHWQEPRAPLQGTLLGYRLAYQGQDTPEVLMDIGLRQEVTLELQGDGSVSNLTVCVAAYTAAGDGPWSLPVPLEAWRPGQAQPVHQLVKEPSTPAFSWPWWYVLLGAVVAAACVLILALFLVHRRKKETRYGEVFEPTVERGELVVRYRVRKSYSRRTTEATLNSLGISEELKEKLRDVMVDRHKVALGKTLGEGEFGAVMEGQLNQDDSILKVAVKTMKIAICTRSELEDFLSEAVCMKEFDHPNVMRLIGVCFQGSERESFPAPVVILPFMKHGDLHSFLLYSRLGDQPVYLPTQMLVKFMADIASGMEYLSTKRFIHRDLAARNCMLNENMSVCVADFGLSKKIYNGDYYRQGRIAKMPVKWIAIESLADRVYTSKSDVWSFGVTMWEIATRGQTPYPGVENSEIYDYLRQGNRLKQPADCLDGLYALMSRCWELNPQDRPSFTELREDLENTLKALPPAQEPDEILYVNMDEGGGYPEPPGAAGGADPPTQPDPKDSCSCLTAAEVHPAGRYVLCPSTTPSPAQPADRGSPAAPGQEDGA
# [3] = system: PRKD2; parameters: method as in Gao et al. [42]; settings: ref Gao et al. [42], cited from earlier work
# [4] = system: GSK3A; parameters: method as in Gao et al. [42]; settings: ref Gao et al. [42], cited from earlier work
# [5] = system: CSNK1G3; parameters: method as in Gao et al. [42]; settings: ref Gao et al. [42], cited from earlier work
# [6] = system: RPS6KA5; parameters: method as in Gao et al. [42]; settings: ref Gao et al. [42], cited from earlier work
# [7] = system: JNK1; parameters: method as in Gao et al. [42]; settings: ref Gao et al. [42], cited from earlier work
# [8] = system: BLK; parameters: method as in Gao et al. [42]; settings: ref Gao et al. [42], cited from earlier work
# [9] = target: T2, FYN A (Homo sapiens, UniProt P06241); parameters: method as in Gao et al. [42]; settings: ref Gao et al. [42], cited from earlier work
# [10] = target: LCK (Homo sapiens, UniProt P06239); parameters: method as in Gao et al. [42]; settings: ref Gao et al. [42], cited from earlier work
# [11] = system: MAPKAPK5; parameters: method as in Gao et al. [42]; settings: ref Gao et al. [42], cited from earlier work
# [12] = system: LIMK1; parameters: method as in Gao et al. [42]; settings: ref Gao et al. [42], cited from earlier work
# [13] = target: FAK (Homo sapiens, UniProt Q05397); parameters: method as in Gao et al. [42]; settings: ref Gao et al. [42]; cited from earlier work
# [14] = system: PLK3; parameters: method as in Gao et al. [42]; settings: ref Gao et al. [42], cited from earlier work
# [15] = system: MELK; parameters: method as in Gao et al. [42]; settings: ref Gao et al. [42], cited from earlier work
# [16] = target: IGF1R (Homo sapiens, UniProt P08069); parameters: method as in Gao et al. [42]; settings: ref Gao et al. [42]; cited from earlier work
# [17] = system: SRPK1; parameters: method as in Gao et al. [42]; settings: ref Gao et al. [42], cited from earlier work
# [18] = target: T2, FYN A; assay: ADP-Glo Kinase Assay, tivozanib off-target testing; assay type: biochemical; settings: read-out: Experimental validation pIC50 (converted)
# Protocol: The kinase inhibitors were dissolved to 1X Kinase Buffer with 5% DMSO by transferring 200nL of the buffer using ECHO525 Liquid handler (Labcyte). […] The dissolved kinases and 2.5X kinase buffer controls were transferred at 400nL using ECHO525. […] The 2.5X ATP/substrate working stocks were transferred at 400nL using ECHO525.
# For the ADP detection, 1 μl ADP-Glo reagent was dispensed (Thermo Scientific Multidrop Combi nL). […] Next, 2 μl kinase detection reagent was dispensed with Thermo Scientific Multidrop Combi nL.
# Kinase assay, kinase dilution and substrate buffers were as indicated by the manufacturer (Promega). The assays were performed in the same way as with the kinases from the Kinase Selectivity Profiling System + ADP-Glo Assay kits (see previous section). All the assays were done in three individual experiments, each having three replicates.
# IC50 values from all the experiments were obtained with GraphPad Prism 7 (GraphPad Software, Inc. California, USA) using inhibitor vs. response—variable slope (four parameters) analysis. […] X-axis scale was set to log10.
# [19] = system: RET; parameters: method as in Gao et al. [42]; settings: ref Gao et al. [42], cited from earlier work
# [20] = system: ROCK2; parameters: method as in Gao et al. [42]; settings: ref Gao et al. [42], cited from earlier work
# [21] = system: TYRO3; parameters: method as in Gao et al. [42]; settings: ref Gao et al. [42], cited from earlier work
# [22] = system: PHKG2; parameters: method as in Gao et al. [42]; settings: ref Gao et al. [42], cited from earlier work
# [23] = system: ERK6; parameters: method as in Gao et al. [42]; settings: ref Gao et al. [42], cited from earlier work
# [24] = system: ROCK1; parameters: method as in Gao et al. [42]; settings: ref Gao et al. [42], cited from earlier work
# T2 sequence (P06241 whole entry): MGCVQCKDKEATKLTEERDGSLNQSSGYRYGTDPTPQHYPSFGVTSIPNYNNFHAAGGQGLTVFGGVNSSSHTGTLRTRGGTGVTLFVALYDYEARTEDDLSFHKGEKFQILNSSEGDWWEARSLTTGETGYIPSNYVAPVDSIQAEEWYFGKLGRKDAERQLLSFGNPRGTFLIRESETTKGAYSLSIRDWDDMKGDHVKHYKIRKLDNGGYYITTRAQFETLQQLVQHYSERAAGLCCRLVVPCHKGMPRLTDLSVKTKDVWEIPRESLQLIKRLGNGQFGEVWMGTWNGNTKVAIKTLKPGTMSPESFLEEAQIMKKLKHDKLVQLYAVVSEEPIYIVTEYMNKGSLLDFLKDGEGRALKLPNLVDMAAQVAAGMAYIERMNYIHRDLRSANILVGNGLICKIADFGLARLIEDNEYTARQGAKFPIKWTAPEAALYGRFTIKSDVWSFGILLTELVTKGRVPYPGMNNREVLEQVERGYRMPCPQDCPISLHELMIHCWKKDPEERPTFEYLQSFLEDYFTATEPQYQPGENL
# Chain of LCK (P06239 whole entry): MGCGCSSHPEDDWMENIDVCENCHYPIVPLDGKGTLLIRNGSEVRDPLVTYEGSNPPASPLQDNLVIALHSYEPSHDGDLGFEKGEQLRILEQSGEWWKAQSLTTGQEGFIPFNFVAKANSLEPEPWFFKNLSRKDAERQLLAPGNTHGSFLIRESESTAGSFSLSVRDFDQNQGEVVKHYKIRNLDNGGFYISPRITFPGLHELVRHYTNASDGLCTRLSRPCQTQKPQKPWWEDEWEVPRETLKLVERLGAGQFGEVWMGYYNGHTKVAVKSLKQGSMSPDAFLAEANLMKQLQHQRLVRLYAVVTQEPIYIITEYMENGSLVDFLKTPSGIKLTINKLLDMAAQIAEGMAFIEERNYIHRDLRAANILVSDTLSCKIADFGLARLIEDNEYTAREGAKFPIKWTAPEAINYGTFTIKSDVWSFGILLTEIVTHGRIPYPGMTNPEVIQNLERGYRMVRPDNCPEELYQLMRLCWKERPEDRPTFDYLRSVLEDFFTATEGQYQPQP
# Chain of FAK (Q05397 whole entry): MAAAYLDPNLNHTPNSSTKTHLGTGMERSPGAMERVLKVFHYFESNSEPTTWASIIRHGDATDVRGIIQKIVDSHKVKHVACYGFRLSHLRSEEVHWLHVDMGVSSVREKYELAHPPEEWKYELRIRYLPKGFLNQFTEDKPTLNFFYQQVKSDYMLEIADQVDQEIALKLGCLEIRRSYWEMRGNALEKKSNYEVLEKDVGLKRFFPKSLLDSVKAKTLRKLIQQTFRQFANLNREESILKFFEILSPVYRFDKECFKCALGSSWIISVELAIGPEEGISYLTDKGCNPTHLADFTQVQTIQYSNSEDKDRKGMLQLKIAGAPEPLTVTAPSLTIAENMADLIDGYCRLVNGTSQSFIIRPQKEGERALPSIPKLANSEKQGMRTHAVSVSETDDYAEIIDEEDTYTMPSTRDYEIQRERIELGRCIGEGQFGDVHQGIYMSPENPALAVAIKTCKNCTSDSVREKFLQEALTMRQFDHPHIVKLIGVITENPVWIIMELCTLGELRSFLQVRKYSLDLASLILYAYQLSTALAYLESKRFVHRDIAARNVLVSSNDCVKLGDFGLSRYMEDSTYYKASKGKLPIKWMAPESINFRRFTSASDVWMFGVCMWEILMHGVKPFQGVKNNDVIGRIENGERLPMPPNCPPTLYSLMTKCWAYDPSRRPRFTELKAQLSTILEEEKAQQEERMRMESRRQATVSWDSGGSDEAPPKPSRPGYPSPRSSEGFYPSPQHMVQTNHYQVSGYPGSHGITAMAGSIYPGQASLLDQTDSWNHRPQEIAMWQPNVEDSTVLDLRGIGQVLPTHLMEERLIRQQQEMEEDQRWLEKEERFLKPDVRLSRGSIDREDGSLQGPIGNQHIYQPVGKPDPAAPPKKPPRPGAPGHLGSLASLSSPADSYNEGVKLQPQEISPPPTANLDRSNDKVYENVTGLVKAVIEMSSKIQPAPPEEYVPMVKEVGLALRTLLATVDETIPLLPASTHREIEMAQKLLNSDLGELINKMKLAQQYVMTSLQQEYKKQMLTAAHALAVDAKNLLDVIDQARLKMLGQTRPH
# Chain of IGF1R (P08069 31-1367): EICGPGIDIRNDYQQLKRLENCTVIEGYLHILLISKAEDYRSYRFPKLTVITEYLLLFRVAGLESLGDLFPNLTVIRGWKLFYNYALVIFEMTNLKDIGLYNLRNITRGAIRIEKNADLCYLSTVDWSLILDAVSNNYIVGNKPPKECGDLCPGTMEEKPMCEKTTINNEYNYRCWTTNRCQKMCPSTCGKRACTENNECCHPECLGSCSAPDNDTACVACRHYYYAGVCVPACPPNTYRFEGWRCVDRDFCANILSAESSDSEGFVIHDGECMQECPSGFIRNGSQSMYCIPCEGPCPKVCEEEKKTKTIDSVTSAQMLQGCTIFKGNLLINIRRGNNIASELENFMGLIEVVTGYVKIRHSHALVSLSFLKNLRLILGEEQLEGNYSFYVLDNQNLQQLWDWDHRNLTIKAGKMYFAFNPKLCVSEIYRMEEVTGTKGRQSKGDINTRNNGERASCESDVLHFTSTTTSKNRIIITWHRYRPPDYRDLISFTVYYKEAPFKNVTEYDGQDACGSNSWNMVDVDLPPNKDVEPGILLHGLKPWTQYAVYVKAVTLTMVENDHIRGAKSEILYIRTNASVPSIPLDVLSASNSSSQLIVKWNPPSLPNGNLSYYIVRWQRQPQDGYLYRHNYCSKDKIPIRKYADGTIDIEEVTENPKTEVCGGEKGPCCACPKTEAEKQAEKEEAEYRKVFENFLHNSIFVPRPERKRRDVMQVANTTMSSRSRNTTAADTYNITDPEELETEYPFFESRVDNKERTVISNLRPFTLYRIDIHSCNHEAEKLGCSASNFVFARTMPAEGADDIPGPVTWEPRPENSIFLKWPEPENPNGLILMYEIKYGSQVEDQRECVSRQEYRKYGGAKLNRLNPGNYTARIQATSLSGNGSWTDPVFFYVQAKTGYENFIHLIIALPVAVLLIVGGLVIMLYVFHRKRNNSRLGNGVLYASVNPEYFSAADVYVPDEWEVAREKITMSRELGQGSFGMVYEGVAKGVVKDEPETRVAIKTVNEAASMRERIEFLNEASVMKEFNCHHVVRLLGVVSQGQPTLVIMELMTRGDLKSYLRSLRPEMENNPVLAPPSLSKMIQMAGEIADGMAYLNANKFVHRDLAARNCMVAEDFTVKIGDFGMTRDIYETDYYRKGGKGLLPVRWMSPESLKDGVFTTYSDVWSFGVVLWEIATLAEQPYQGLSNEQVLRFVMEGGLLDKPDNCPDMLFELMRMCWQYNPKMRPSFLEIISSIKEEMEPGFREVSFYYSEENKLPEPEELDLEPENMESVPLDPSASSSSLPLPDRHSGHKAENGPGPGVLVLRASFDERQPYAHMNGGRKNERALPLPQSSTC
structure (smiles),measurement,setting,value
"COc1cc2nccc(Oc3ccc(NC(=O)Nc4cc(C)on4)c(Cl)c3)c2cc1OC [TIVOZANIB, Tivozanib]",Gao et al. % of activity remaining at 1 µM,[1]; 1 µM,91%
same,Gao et al. % of activity remaining at 10 µM,[1]; 10 µM,52%
same,Gao et al. % of activity remaining at 1 µM,[2]; 1 µM,12%
same,Gao et al. % of activity remaining at 10 µM,[2]; 10 µM,10%
same,Gao et al. % of activity remaining at 1 µM,[3]; 1 µM,95%
same,Gao et al. % of activity remaining at 10 µM,[3]; 10 µM,103%
same,Gao et al. % of activity remaining at 1 µM,[4]; 1 µM,107%
same,Gao et al. % of activity remaining at 10 µM,[4]; 10 µM,123%
same,Gao et al. % of activity remaining at 1 µM,[5]; 1 µM,104%
same,Gao et al. % of activity remaining at 10 µM,[5]; 10 µM,93%
same,Gao et al. % of activity remaining at 1 µM,[6]; 1 µM,107%
same,Gao et al. % of activity remaining at 10 µM,[6]; 10 µM,80%
same,Gao et al. % of activity remaining at 1 µM,[7]; 1 µM,120%
same,Gao et al. % of activity remaining at 10 µM,[7]; 10 µM,109%
same,Gao et al. % of activity remaining at 1 µM,[8]; 1 µM,2%
same,Gao et al. % of activity remaining at 10 µM,[8]; 10 µM,0%
same,Gao et al. % of activity remaining at 1 µM,[9]; 1 µM,5%
same,Gao et al. % of activity remaining at 10 µM,[9]; 10 µM,1%
same,Gao et al. % of activity remaining at 1 µM,[10]; 1 µM,-2%
same,Gao et al. % of activity remaining at 10 µM,[10]; 10 µM,1%
same,Gao et al. % of activity remaining at 1 µM,[11]; 1 µM,99%
same,Gao et al. % of activity remaining at 10 µM,[11]; 10 µM,70%
same,Gao et al. % of activity remaining at 1 µM,[12]; 1 µM,67%
same,Gao et al. % of activity remaining at 10 µM,[12]; 10 µM,14%
same,Gao et al. % of activity remaining at 10 µM,[13],35%
same,Gao et al. % of activity remaining at 1 µM,[14]; 1 µM,85%
same,Gao et al. % of activity remaining at 10 µM,[14]; 10 µM,87%
same,Gao et al. % of activity remaining at 1 µM,[15]; 1 µM,91%
same,Gao et al. % of activity remaining at 10 µM,[15]; 10 µM,80%
same,Gao et al. % of activity remaining at 1 µM,[16],135%
same,Gao et al. % of activity remaining at 1 µM,[17]; 1 µM,98%
same,Gao et al. % of activity remaining at 10 µM,[17]; 10 µM,90%
same,IC50,[18],398 nM
same,Gao et al. % of activity remaining at 1 µM,[19]; 1 µM,0%
same,Gao et al. % of activity remaining at 10 µM,[19]; 10 µM,-1%
same,Gao et al. % of activity remaining at 1 µM,[20]; 1 µM,76%
same,Gao et al. % of activity remaining at 10 µM,[20]; 10 µM,51%
same,Gao et al. % of activity remaining at 1 µM,[21]; 1 µM,10%
same,Gao et al. % of activity remaining at 10 µM,[21]; 10 µM,8%
same,Gao et al. % of activity remaining at 1 µM,[22]; 1 µM,95%
same,Gao et al. % of activity remaining at 10 µM,[22]; 10 µM,66%
same,Gao et al. % of activity remaining at 1 µM,[23]; 1 µM,100%
same,Gao et al. % of activity remaining at 10 µM,[23]; 10 µM,94%
same,Gao et al. % of activity remaining at 1 µM,[24]; 1 µM,113%
same,Gao et al. % of activity remaining at 10 µM,[24]; 10 µM,112%
